According to patent publication US6914045B2, “Glycopeptide antibiotics” (Wyeth Holdings Corporation, priority 2001, dated 2005):
Values after ≈ are worked out from the molar mass of the structure shown.

What was measured:
Test in all cases: in vitro antibacterial evaluation, MIC by broth dilution
Type in all cases: cell-based
[1] = system: Streptococcus sp.; details: broth dilution, 18 hours at 35° C.
Outline: (§1)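 Test organisms, which included recent clinical isolates resistant to methicillin, penicillin and/or vancomycin, were inoculated at 5×10^5 CFU/mL into Muller-Hinton II […] containing antibiotic at 64-0.06 μg/mL. Minimum inhibitory concentrations were then read as the lowest level inhibiting growth.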

[2] = system: Enterococcus sp.; details: broth dilution, 18 hours at 35° C.
Outline: as §1

[3] = system: Escherichia coli
Outline: as §1

[4] = system: Staphylococcus sp.; details: broth dilution, 18 hours at 35° C.; for MIC Staphylococcus aureus (GC 1131): strain GC 1131
Outline: as §1

MIC Streptococcus agalactiae (GC 4564) ([1]; Streptococcus agalactiae (GC 4564)): 16 µg/mL (≈ 11.3 µM)
MIC Streptococcus pneumoniae (ATCC 6301) ([1]; Streptococcus pneumoniae (ATCC 6301)): 8 µg/mL (≈ 5.66 µM)
MIC Streptococcus pneumoniae (GC 1894) ([1]; Streptococcus pneumoniae (GC 1894)): 4 µg/mL (≈ 2.83 µM)
MIC Streptococcus pneumoniae (GC 4565) ([1]; Streptococcus pneumoniae (GC 4565)): 16 µg/mL (≈ 11.3 µM)
MIC Streptococcus pyogenes (GC 4563) ([1]; Streptococcus pyogenes (GC 4563)): 16 µg/mL (≈ 11.3 µM)
MIC Streptococcus pneumoniae (ATCC 6301) ([1]; strain ATCC 6301): 8 µg/mL (≈ 5.66 µM)
MIC Streptococcus pneumoniae (GC 1894) ([1]; strain GC 1894): 4 µg/mL (≈ 2.83 µM)
MIC Streptococcus pyogenes (GC 4563) ([1]; strain GC 4563): 16 µg/mL (≈ 11.3 µM)
MIC Streptococcus agalactiae (GC 4564) ([1]; strain GC 4564): 16 µg/mL (≈ 11.3 µM)
MIC Streptococcus pneumoniae (GC 4565) ([1]; strain GC 4565): 16 µg/mL (≈ 11.3 µM)
MIC Enterococcus avium (GC 4558) ([2]; Enterococcus avium (GC 4558)): 64 µg/mL (≈ 45.3 µM)
MIC Enterococcus faecalis (ATCC 29212) ([2]; Enterococcus faecalis (ATCC 29212)): >64 µg/mL
MIC Enterococcus faecalis (GC 2242) ([2]; Enterococcus faecalis (GC 2242)): >64 µg/mL
MIC Enterococcus faecalis (GC 2691) ([2]; Enterococcus faecalis (GC 2691)): >64 µg/mL
MIC Enterococcus faecalis (GC 3059) ([2]; Enterococcus faecalis (GC 3059)): >64 µg/mL
MIC Enterococcus faecalis (GC 4552) ([2]; Enterococcus faecalis (GC 4552)): >64 µg/mL
MIC Enterococcus faecalis (GC 4553) ([2]; Enterococcus faecalis (GC 4553)): >64 µg/mL
MIC Enterococcus faecalis (GC 4554) ([2]; Enterococcus faecalis (GC 4554)): >64 µg/mL
MIC Enterococcus faecalis (GC 6189) ([2]; Enterococcus faecalis (GC 6189)): >64 µg/mL
MIC Enterococcus faecium (GC 2243) ([2]; Enterococcus faecium (GC 2243)): >64 µg/mL
MIC Enterococcus faecium (GC 4556) ([2]; Enterococcus faecium (GC 4556)): >64 µg/mL
MIC Enterococcus faecium (GC 4557) ([2]; Enterococcus faecium (GC 4557)): 16 µg/mL (≈ 11.3 µM)
MIC Enterococcus faecalis (ATCC 29212) ([2]; strain ATCC 29212): >64 µg/mL
MIC Enterococcus faecalis (GC 2242) ([2]; strain GC 2242): >64 µg/mL
MIC Enterococcus faecium (GC 2243) ([2]; strain GC 2243): >64 µg/mL
MIC Enterococcus faecalis (GC 2691) ([2]; strain GC 2691): >64 µg/mL
MIC Enterococcus faecalis (GC 3059) ([2]; strain GC 3059): >64 µg/mL
MIC Enterococcus faecalis (GC 4552) ([2]; strain GC 4552): >64 µg/mL
MIC Enterococcus faecalis (GC 4553) ([2]; strain GC 4553): >64 µg/mL
MIC Enterococcus faecalis (GC 4554) ([2]; strain GC 4554): >64 µg/mL
MIC Enterococcus faecium (GC 4556) ([2]; strain GC 4556): >64 µg/mL
MIC Enterococcus faecium (GC 4557) ([2]; strain GC 4557): 16 µg/mL (≈ 11.3 µM)
MIC Enterococcus avium (GC 4558) ([2]; strain GC 4558): 64 µg/mL (≈ 45.3 µM)
MIC Enterococcus faecalis (GC 6189) ([2]; strain GC 6189): >64 µg/mL
MIC Escherichia coli (ATCC 25922) ([3]; strain ATCC 25922, 18 hours at 35° C.): >64 µg/mL
MIC Escherichia coli (GC 4559) ([3]; strain GC 4559, 18 hours at 35° C.): >64 µg/mL
MIC Escherichia coli (GC 4560) ([3]; strain GC 4560, 18 hours at 35° C.): 8 µg/mL (≈ 5.66 µM)
MIC Staphylococcus aureus (GC 1131) ([4]; inoculum 5×10^5 CFU/mL): 32 µg/mL (≈ 22.6 µM)
MIC Staphylococcus aureus (ATCC 29213) ([4]; strain ATCC 29213): 32 µg/mL (≈ 22.6 µM)
MIC Staphylococcus aureus (GC 1131) [4]: 32 µg/mL (≈ 22.6 µM)
MIC Staphylococcus aureus (GC 3051) ([4]; strain GC 3051): 32 µg/mL (≈ 22.6 µM)
MIC Staphylococcus aureus (GC 3053) ([4]; strain GC 3053): 32 µg/mL (≈ 22.6 µM)
MIC Staphylococcus aureus (GC 4541) ([4]; strain GC 4541): 16 µg/mL (≈ 11.3 µM)
MIC Staphylococcus aureus (GC 4542) ([4]; strain GC 4542): 32 µg/mL (≈ 22.6 µM)
MIC Staphylococcus aureus-SMITH (GC 4543) ([4]; strain GC 4543): 16 µg/mL (≈ 11.3 µM)
MIC Staphylococcus aureus (GC 4544) ([4]; strain GC 4544): 32 µg/mL (≈ 22.6 µM)
MIC Staphylococcus aureus (GC 4545) ([4]; strain GC 4545): 32 µg/mL (≈ 22.6 µM)
MIC Coagulase Negative Staphylococcus (GC 4547) ([4]; strain GC 4547): 16 µg/mL (≈ 11.3 µM)
MIC Coagulase Negative Staphylococcus (GC 4548) ([4]; strain GC 4548): 8 µg/mL (≈ 5.66 µM)
MIC Coagulase Negative Staphylococcus (GC 4549) ([4]; strain GC 4549): 8 µg/mL (≈ 5.66 µM)
MIC Coagulase Negative Staphylococcus (GC 4551) ([4]; strain GC 4551): 16 µg/mL (≈ 11.3 µM)
MIC Coagulase Negative Staphylococcus (GC 6257) ([4]; strain GC 6257): 8 µg/mL (≈ 5.66 µM)
MIC Staphylococcus aureus-SMITH (GC 4543) ([4]; strain SMITH GC 4543): 16 µg/mL (≈ 11.3 µM)
SMILES: COc1cccc(C2OC3C(OC4C(CO)OC(Oc5ccc(CC6NC(=O)C(C(C)c7ccccc7)NC(=O)CNC(=O)C(CO)NC(=O)C(C(O)C7CNC(=N)N7C7OC(CO)C(O)C(O)C7O)NC(=O)C(C(O)C7CNC(=N)N7)NC6=O)cc5)C(O)C4O)OC(CO)C(O)C3O2)c1 (single isomer, unassigned) [Example 137a, Cyclo[glycyl-β-methylphenylalanyl-O-[4-O-[2,3-O-(3-methoxybenzylidene)hexopyranosyl]-hexopyranosyl]tyrosyl-3-(2-iminoimidazolidin-4-yl)seryl-3-(3-hexopyranosyl-2-iminoimidazolidin-4-yl)serylseryl]]
MIC Staphylococcus haemolyticus (GC 4546) ([4]; strain GC 4546): 16 µg/mL (≈ 11.3 µM)
